Experimental findings from patent US10501425B2, “Microbiocidal oxadiazole derivatives” (SYNGENTA PARTICIPATIONS AG, priority 2015, dated 2019) are described below.

Assay [1] deals with Puccinia recondita f. Sp. Tritici. Kind of assay: Puccinia recondita f. sp. tritici / wheat / leaf disc preventative (brown rust). It counts as in vivo. Particulars: foliar, 200 ppm in the applied formulation, wheat leaf segments cv. Kanzler, preventative (inoculated 1 day after application), compared to untreated, read-out: disease control. How it is done:
Leaf disks or leaf segments of various plant species are cut from plants grown in a greenhouse. The cut leaf disks or segments are placed in multiwell plates (24-well format) onto water agar. The leaf disks are sprayed with a test solution before (preventative) or after (curative) inoculation. Compounds to be tested are prepared as DMSO solutions (max. 10 mg/ml) which are diluted to the appropriate concentration with 0.025% Tween20 just before spraying. The inoculated leaf disks or segments are incubated under defined conditions (temperature, relative humidity, light, etc.) according to the respective test system. A single evaluation of disease level is carried out 3 to 14 days after inoculation, depending on the pathosystem. Percent disease control relative to the untreated check leaf disks or segments is then calculated. Wheat leaf segments cv. Kanzler were placed on agar in multiwell plates (24-well format) and sprayed with the formulated test compound diluted in water. The leaf disks were inoculated with a spore suspension of the fungus 1 day after application. The inoculated leaf segments were incubated at 19° C. and 75% relative humidity (rh) under a light regime of 12 hours light/12 hours darkness in a climate cabinet and the activity of a compound was assessed as percent disease control compared to untreated when an appropriate level of disease damage appears in untreated check leaf segments (7 to 9 days after application). The following compounds at 200 ppm in the applied formulation give at least 80% disease control in this test when compared to untreated control leaf disks under the same conditions, which show extensive disease development.

Assay [2] relates to Glomerella lacenarium (Colletotrichum lagenarium). Kind of assay: Glomerella lagenarium liquid culture / cucumber / preventative (anthracnose). The class given is cell-based. Particulars: Colletotrichum orbiculare; 20 ppm in the applied formulation; liquid culture (PDB), growth inhibition measured photometrically 3 to 4 days after application; compared to untreated; read-out: disease control. How it is done:
Mycelia fragments or conidia suspensions of a fungus prepared either freshly from liquid cultures of the fungus or from cryogenic storage, are directly mixed into nutrient broth. DMSO solutions of the test compound (max. 10 mg/ml) are diluted with 0.025% Tween20 by a factor of 50 and 10 μl of this solution is pipetted into a microtiter plate (96-well format). The nutrient broth containing the fungal spores/mycelia fragments is then added to give an end concentration of the tested compound. The test plates are incubated in the dark at 24° C. and 96% relative humidity. The inhibition of fungal growth is determined photometrically after 2 to 7 days, depending on the pathosystem, and percent antifungal activity relative to the untreated check is calculated.
Conidia of the fungus from cryogenic storage are directly mixed into nutrient broth (PDB—potato dextrose broth). After placing a (DMSO) solution of test compound into a microtiter plate (96-well format), the nutrient broth containing the fungal spores is added.
The following compounds at 20 ppm in the applied formulation give at least 80% disease control in this test when compared to untreated control under the same conditions, which show extensive disease development.

The subject of assay [3] is Puccinia recondita f. Sp. Tritici. Kind of assay: Puccinia recondita f. sp. tritici / wheat / leaf disc curative (brown rust). The class given is in vivo. Particulars: foliar, 24 h, 200 ppm in the applied formulation, wheat leaf segments cv. Kanzler, curative (applied 1 day after inoculation), compared to untreated, read-out: disease control. As for the experimental part:
Leaf disks or leaf segments of various plant species are cut from plants grown in a greenhouse. The cut leaf disks or segments are placed in multiwell plates (24-well format) onto water agar. The leaf disks are sprayed with a test solution before (preventative) or after (curative) inoculation. Compounds to be tested are prepared as DMSO solutions (max. 10 mg/ml) which are diluted to the appropriate concentration with 0.025% Tween20 just before spraying. The inoculated leaf disks or segments are incubated under defined conditions (temperature, relative humidity, light, etc.) according to the respective test system. A single evaluation of disease level is carried out 3 to 14 days after inoculation, depending on the pathosystem. Percent disease control relative to the untreated check leaf disks or segments is then calculated.
Wheat leaf segments cv. Kanzler are placed on agar in multiwell plates (24-well format). The leaf segments are then inoculated with a spore suspension of the fungus. Plates were stored in darkness at 19° C. and 75% relative humidity. The formulated test compound diluted in water was applied 1 day after inoculation. The leaf segments were incubated at 19° C. and 75% relative humidity under a light regime of 12 hours light/12 hours darkness in a climate cabinet and the activity of a compound was assessed as percent disease control compared to untreated when an appropriate level of disease damage appears in untreated check leaf segments (6 to 8 days after application).
The following compounds at 200 ppm in the applied formulation give at least 80% disease control in this test when compared to untreated control leaf disks under the same conditions, which show extensive disease development.

With `O=C(NCc1ccc(-c2noc(C(F)(F)F)n2)cn1)OCCCCCl` [Compound 2.28, 4-chlorobutyl N-[[5-[5-(trifluoromethyl)-1,2,4-oxadiazol-3-yl]-2-pyridyl]methyl]carbamate], the pest or weed control at 200 ppm in assay [1] and in assay [3] was ≥ 80% throughout. Also, the inhibition of growth at 20 ppm in assay [2] was ≥ 80%.
Regarding `N#CCC(=O)NCc1ccc(-c2noc(C(F)(F)F)n2)c(F)c1F` [Compound 1.62, 2-cyano-N-[[2,3-difluoro-4-[5-(trifluoromethyl)-1,2,4-oxadiazol-3-yl]phenyl]methyl]acetamide], the pest or weed control at 200 ppm in assay [1] and in assay [3] was ≥ 80% each time. Moreover, the inhibition of growth at 20 ppm in assay [2] is ≥ 80%.
In the case of `CC(C)(C)COC(=O)NCc1ccc(-c2noc(C(F)(F)F)n2)cn1` [Compound 2.34, 2,2-dimethylpropyl N-[[5-[5-(trifluoromethyl)-1,2,4-oxadiazol-3-yl]-2-pyridyl]methyl]carbamate], in assay [2], the inhibition of growth at 20 ppm was ≥ 80%. For the same molecule, in assay [3], the pest or weed control at 200 ppm is ≥ 80%.
Take `COCCC(=O)NCc1ccc(-c2noc(C(F)(F)F)n2)cc1F` [Compound 1.37, N-[[2-fluoro-4-[5-(trifluoromethyl)-1,2,4-oxadiazol-3-yl]phenyl]methyl]-3-methoxy-propanamide]: the pest or weed control at 200 ppm in assay [1] and in assay [3] was ≥ 80% each time. The inhibition of growth at 20 ppm in assay [2] was ≥ 80%.
Turning to `CC(C)OC(=O)NCc1ccc(-c2noc(C(F)(F)F)n2)cn1` [Compound 2.29, isopropyl N-[[5-[5-(trifluoromethyl)-1,2,4-oxadiazol-3-yl]-2-pyridyl]methyl]carbamate], the pest or weed control at 200 ppm in assay [1] and in assay [3] was ≥ 80% each time. In addition, the inhibition of growth at 20 ppm in assay [2] was ≥ 80%.
On to `O=C(NCc1ccc(-c2noc(C(F)(F)F)n2)cn1)OCCCCl` [Compound 2.31, 3-chloropropyl N-[[5-[5-(trifluoromethyl)-1,2,4-oxadiazol-3-yl]-2-pyridyl]methyl]carbamate], for which the pest or weed control at 200 ppm in assay [1] and in assay [3] was ≥ 80% throughout. For the same molecule, in assay [2], the inhibition of growth at 20 ppm is ≥ 80%.
`CC#CCOC(=O)NCc1ccc(-c2noc(C(F)(F)F)n2)cn1` [Compound 2.21, but-2-ynyl N-[[5-[5-(trifluoromethyl)-1,2,4-oxadiazol-3-yl]-2-pyridyl]methyl]carbamate]: the pest or weed control at 200 ppm in assay [1] and in assay [3] was ≥ 80% in each case. The inhibition of growth at 20 ppm in assay [2] was ≥ 80%.
With `CC(C)(C)NC(=O)NCc1ccc(-c2noc(C(F)(F)F)n2)cc1` [Compound 3.15, 1-tert-butyl-3-[[4-[5-(trifluoromethyl)-1,2,4-oxadiazol-3-yl]phenyl]methyl]urea], the pest or weed control at 200 ppm in assay [1] and in assay [3] was ≥ 80% in each case. Besides, the inhibition of growth at 20 ppm in assay [2] is ≥ 80%.
For the molecule `CCCC(=O)NCc1ccc(-c2noc(C(F)(F)F)n2)cn1` [Compound 1.67, N-[[5-[5-(trifluoromethyl)-1,2,4-oxadiazol-3-yl]-2-pyridyl]methyl]butanamide], the pest or weed control at 200 ppm in assay [1] and in assay [3] was ≥ 80% throughout. For the same molecule, the inhibition of growth at 20 ppm in assay [2] was ≥ 80%.
For `CCOC(=O)NCc1ccc(-c2noc(C(F)(F)F)n2)cn1` [Compound 2.32, ethyl N-[[5-[5-(trifluoromethyl)-1,2,4-oxadiazol-3-yl]-2-pyridyl]methyl]carbamate], the pest or weed control at 200 ppm in assay [1] and in assay [3] was ≥ 80% throughout. In addition, the inhibition of growth at 20 ppm in assay [2] is ≥ 80%.
Turning to `COCCCC(=O)NCc1ccc(-c2noc(C(F)(F)F)n2)cn1` [Compound 1.72, 4-methoxy-N-[[5-[5-(trifluoromethyl)-1,2,4-oxadiazol-3-yl]-2-pyridyl]methyl]butanamide], the pest or weed control at 200 ppm in assay [1] and in assay [3] was ≥ 80% in each case. Moreover, the inhibition of growth at 20 ppm in assay [2] was ≥ 80%.
For the molecule `O=C(NCc1ccc(-c2noc(C(F)(F)F)n2)cn1)OCCF` [Compound 2.30, 2-fluoroethyl N-[[5-[5-(trifluoromethyl)-1,2,4-oxadiazol-3-yl]-2-pyridyl]methyl]carbamate], the pest or weed control at 200 ppm in assay [1] and in assay [3] was ≥ 80% in each case. Besides, in assay [2], the inhibition of growth at 20 ppm is ≥ 80%.
Regarding `CCCCOC(=O)NCc1ccc(-c2noc(C(F)(F)F)n2)cn1` [Compound 2.26, butyl N-[[5-[5-(trifluoromethyl)-1,2,4-oxadiazol-3-yl]-2-pyridyl]methyl]carbamate], the pest or weed control at 200 ppm in assay [1] and in assay [3] was ≥ 80% each time. The inhibition of growth at 20 ppm in assay [2] is ≥ 80%.
Turning to `COCCOC(=O)NCc1ccc(-c2noc(C(F)(F)F)n2)cn1` [Compound 2.24, 2-methoxyethyl N-[[5-[5-(trifluoromethyl)-1,2,4-oxadiazol-3-yl]-2-pyridyl]methyl]carbamate], the pest or weed control at 200 ppm in assay [1] and in assay [3] was ≥ 80% throughout. Also, the inhibition of growth at 20 ppm in assay [2] is ≥ 80%.
Take `COCCCC(=O)NCc1ccc(-c2noc(C(F)(F)F)n2)c(F)c1F` [Compound 1.61, N-[[2,3-difluoro-4-[5-(trifluoromethyl)-1,2,4-oxadiazol-3-yl]phenyl]methyl]-4-methoxy-butanamide]: the pest or weed control at 200 ppm in assay [1] and in assay [3] was ≥ 80% each time. For the same molecule, the inhibition of growth at 20 ppm in assay [2] was ≥ 80%.
In the case of `COCCC(=O)NCc1ccc(-c2noc(C(F)(F)F)n2)c(F)c1F` [Compound 1.53, N-[[2,3-difluoro-4-[5-(trifluoromethyl)-1,2,4-oxadiazol-3-yl]phenyl]methyl]-3-methoxy-propanamide], the pest or weed control at 200 ppm in assay [1] and in assay [3] was ≥ 80% throughout. Besides, the inhibition of growth at 20 ppm in assay [2] was ≥ 80%.
Take `COCCCC(=O)NCc1ccc(-c2noc(C(F)(F)F)n2)c(F)c1` [Compound 1.40, N-[[3-fluoro-4-[5-(trifluoromethyl)-1,2,4-oxadiazol-3-yl]phenyl]methyl]-4-methoxy-butanamide]: the pest or weed control at 200 ppm in assay [1] and in assay [3] was ≥ 80% throughout. For the same molecule, in assay [2], the inhibition of growth at 20 ppm is ≥ 80%.
Regarding `N#CCC(=O)NCc1ccc(-c2noc(C(F)(F)F)n2)cc1F` [Compound 1.45, 2-cyano-N-[[2-fluoro-4-[5-(trifluoromethyl)-1,2,4-oxadiazol-3-yl]phenyl]methyl]acetamide], the pest or weed control at 200 ppm in assay [1] and in assay [3] was ≥ 80% each time. The inhibition of growth at 20 ppm in assay [2] was ≥ 80%.
On to `N#CCC(=O)NCc1ccc(-c2noc(C(F)(F)F)n2)cn1` [Compound 1.73, 2-cyano-N-[[5-[5-(trifluoromethyl)-1,2,4-oxadiazol-3-yl]-2-pyridyl]methyl]acetamide], for which the inhibition of growth at 20 ppm in assay [2] is ≥ 80%. The pest or weed control at 200 ppm in assay [3] was ≥ 80%.
Regarding `COCC(=O)NCc1ccc(-c2noc(C(F)(F)F)n2)cc1Cl` [Compound 1.57, N-[[2-chloro-4-[5-(trifluoromethyl)-1,2,4-oxadiazol-3-yl]phenyl]methyl]-2-methoxy-acetamide], the inhibition of growth at 20 ppm in assay [2] was ≥ 80%. In addition, the pest or weed control at 200 ppm in assay [3] is ≥ 80%.
